Test results taken from patent US8609699B2, “Oxotetrahydrofuran-2-yl-benzimidazole derivative” (MSD K.K., priority 2008, dated 2013).
pEC50: −log10 of the molar value.

Key:
[1] = target: T1, recombinant human liver GK (Homo sapiens, UniProt P35557); experiment: Glucokinase-activating effect (Thio-NADH, G6PDH-coupled assay); assay type: biochemical; settings: final glucose 2.5 mM, 30° C, separated enantiomers
T1 construct: made in house; host or cells: E. coli
T1 sequence (P35557 1-466 isoform P35557-2): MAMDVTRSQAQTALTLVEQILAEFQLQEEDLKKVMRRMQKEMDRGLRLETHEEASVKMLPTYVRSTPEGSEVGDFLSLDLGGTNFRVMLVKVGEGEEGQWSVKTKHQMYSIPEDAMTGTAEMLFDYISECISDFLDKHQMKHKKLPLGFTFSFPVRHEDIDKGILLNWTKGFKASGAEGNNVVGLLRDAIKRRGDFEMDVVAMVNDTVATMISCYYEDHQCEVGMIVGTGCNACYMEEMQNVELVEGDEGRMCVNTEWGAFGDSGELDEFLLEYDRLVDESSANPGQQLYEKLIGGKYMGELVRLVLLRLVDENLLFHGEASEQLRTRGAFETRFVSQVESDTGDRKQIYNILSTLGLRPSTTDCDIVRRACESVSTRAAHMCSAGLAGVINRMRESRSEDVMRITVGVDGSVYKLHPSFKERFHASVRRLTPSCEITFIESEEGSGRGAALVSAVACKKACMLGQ
Text: The excellent glucokinase-activating effect of the compounds of formula (I) may be determined by a method described in literature (for example, Diabetes, Vol. 45, pp. 1671-1677, 1996), or in accordance with it.
The glucokinase activity may be determined not by directly measuring glucose-6-phosphate but by measuring the level of Thio-NADH, which is produced when a reporter enzyme, glucose-6-phosphate dehydrogenase produces phosphogluconolactone from glucose-6-phosphate, and based on the level, the degree of glucokinase activation by the compound tested may be determined.
In this assay, used was a recombinant human liver GK, which was expressed by E. coli as a FLAG fusion protein therein and was purified by ANTIFLAG M2 AFFINITY GEL (Sigma).
Using a flat-bottomed 96-well plate, the assay was carried out at 30° C. 69 μl of an assay buffer (25 mM Hepes Buffer/pH=7.2, 2 mM MgCl2, 1 mM ATP, 0.5 mM TNAD, 1 mM dithiothreitol) was put into the plate, and 1 μl of a DMSO solution of the compound or DMSO alone as a control was added thereto. Next, 20 μl of an enzyme mixture (FLAG-GK, 20 U/ml G6PDH) cooled in ice was added to it, and 10 μl of a substrate, 25 mM glucose was added to it, and the reaction was initiated (final glucose concentration=2.5 mM).
After the start of the reaction, the increase in the absorbance at 405 nm was measured for 12 minutes at intervals of 30 seconds, and the increase for the first 5 minutes was used for assessing the compound tested. FLAG-GK was added so that the absorbance increase after 5 minutes in the presence of 1% DMSO could be from 0.04 to 0.06.
The OD level of the DMSO control was set as 100%; and the OD level of the test compound at different concentrations was determined. From the OD level at each concentration, Emax (%) and EC50 (μM) were computed and used as the index of the GK-activating potency of the compound.
The GK activating effect of the compounds of the invention was measured according to the method as above, and the results are shown in Table 5 below.

male beagles = experiment: Antihyperglycemic effect in fasted beagles (plasma glucose AUC); assay type: in vivo; settings: compared to control group up to 4 hours after administration, fasted overnight
Description: From the cephalic vein of male beagles fasted overnight (9.4-14.4 kg body weight), blood was collected prior to administration, followed by oral administration of the test drug suspended in a 0.5% methyl cellulose solution (0.3 and 1 mg/kg), while a 0.5% methyl cellulose solution was orally administered to the control group. The blood was collected at 0.5, 1, 2, and 4 hours after the administration of the test drug. Plasma was separated from the obtained blood to determine a plasma glucose level using Determina-GL-E (Kyowa Medics).

[2] = tested on: high-fat diet loaded mice; experiment: Antihyperglycemic effect in high-fat diet loaded mice; assay type: in vivo, C57BL/6J mice; settings: oral 10 mg/kg in 0.5% methyl cellulose; 1 hour after administration; free-feeding mice
Description: Six-week-old male C57BL/6J mice were fed a high-fat diet (RESEARCH DIETS, D12492) for ≧9 weeks to produce the high-fat diet loaded mice (>160 mg/dl).
The slight tail tips of the high-fat diet loaded mice (18-21 weeks old, n=6) under the conditions of free-feeding and water intake were cut with scissors to collect their blood. The collected blood was used to determine blood glucose levels prior to the administration of a compound by a blood glucose level measuring apparatus (One Touch Ultra (Johnson. Johnson)), followed by oral administration of the compound suspended in a 0.5% methyl cellulose solution at 10 mg/kg, while a 0.5% methyl cellulose solution was orally administered to the control group. The blood glucose levels were determined using the blood glucose level measuring apparatus every 1 hour after the administration of the test drug solutions.
The values of the decreases in blood glucose (differences between the control group and the compound-treated group) at 1 hour after administration were shown in Table 7 described below.
The values of the decreases in blood glucose (differences between the control group and the compound-treated group) at 1 hour after administration of the compounds according to Example 1 and Example 7 were shown in Table 7 described below.

## CN(C)C(=O)Cc1ccc(Oc2cc3nc(-c4ccccn4)[nH]c3cc2C2CCC(=O)O2)cc1 (single isomer, unassigned) [Example 7 B, N,N-dimethyl-2-(4-{[6-(5-oxotetrahydrofuran-2-yl)-2-pyridin-2-yl-1H-benzimidazol-5-yl]oxy}phenyl)acetamide]
[1]; OD level of DMSO control = 100%, listed as 7 B
  Emax(%): 972%
[1]
  pEC50: 6.54
Male beagles; oral 0.3 mg/kg
  Rate of decrease (%) in plasma glucose level AUC: 12.4%
Male beagles; oral 1.0 mg/kg
  Rate of decrease (%) in plasma glucose level AUC: 15.6%
[2]
  Difference from control group (Δmg/dl), decrease in blood glucose: −146 Δmg/dl
